Test results taken from patent publication US20220281848A1, “PYRAZOLE-SUBSTITUTED PYRROLIDINONES AS HERBICIDES” (FMC Corporation, priority 2019, published 2022).

Test system: plants
Test: Test D pre-emergence, other plants of Tables D1 and D3
Format: in vivo
Conditions: preemergent, 20 DAA
Outline: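 Damage was rated visually from 0 (none) to 100 (total), at 20 DAA for pre-emergence and 15 d for post-emergence. Plants grew from safener-treated seed in a glasshouse at 24/18° C. or 20/16° C. day/night, 65% humidity, watered twice daily.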

## CN1CC(c2cc(C(F)(F)F)n(C)n2)C(C(=O)Nc2cccc(F)c2C(F)(F)F)C1=O (racemic) [Compound 19]
Rate 15
  damage to plant (100=total damage to plant; 0=no damage to plant), ABUTH: 0
  damage to plant (100=total damage to plant; 0=no damage to plant), AMARE: 0
  damage to plant (100=total damage to plant; 0=no damage to plant), BIDPI: 0
  damage to plant (100=total damage to plant; 0=no damage to plant), BRAPL: 0
  damage to plant (100=total damage to plant; 0=no damage to plant), CYPES: 0
  damage to plant (100=total damage to plant; 0=no damage to plant), DIGSA: 70
  damage to plant (100=total damage to plant; 0=no damage to plant), ECHCG: 0
  damage to plant (100=total damage to plant; 0=no damage to plant), ELEIN: 0
  damage to plant (100=total damage to plant; 0=no damage to plant), EPHHL: 0
  damage to plant (100=total damage to plant; 0=no damage to plant), GLXMA: 0
  damage to plant (100=total damage to plant; 0=no damage to plant), IPOHE: 0
  damage to plant (100=total damage to plant; 0=no damage to plant), ORYSA: 0
  damage to plant (100=total damage to plant; 0=no damage to plant), PANMI: 0
  damage to plant (100=total damage to plant; 0=no damage to plant), SETFA: 0
  damage to plant (100=total damage to plant; 0=no damage to plant), SORVU: 0
Rate 30
  damage to plant (100=total damage to plant; 0=no damage to plant), ABUTH: 0
  damage to plant (100=total damage to plant; 0=no damage to plant), AMARE: 0
  damage to plant (100=total damage to plant; 0=no damage to plant), BIDPI: 0
  damage to plant (100=total damage to plant; 0=no damage to plant), BRAPL: 40
  damage to plant (100=total damage to plant; 0=no damage to plant), CYPES: 0
  damage to plant (100=total damage to plant; 0=no damage to plant), DIGSA: 90
  damage to plant (100=total damage to plant; 0=no damage to plant), ECHCG: 20
  damage to plant (100=total damage to plant; 0=no damage to plant), ELEIN: 0
  damage to plant (100=total damage to plant; 0=no damage to plant), EPHHL: 0
  damage to plant (100=total damage to plant; 0=no damage to plant), GLXMA: 0
  damage to plant (100=total damage to plant; 0=no damage to plant), IPOHE: 0
  damage to plant (100=total damage to plant; 0=no damage to plant), ORYSA: 0
  damage to plant (100=total damage to plant; 0=no damage to plant), PANMI: 0
  damage to plant (100=total damage to plant; 0=no damage to plant), SETFA: 60
  damage to plant (100=total damage to plant; 0=no damage to plant), SORVU: 0
Rate 60
  damage to plant (100=total damage to plant; 0=no damage to plant), ABUTH: 0
  damage to plant (100=total damage to plant; 0=no damage to plant), AMARE: 0
  damage to plant (100=total damage to plant; 0=no damage to plant), BIDPI: 0
  damage to plant (100=total damage to plant; 0=no damage to plant), BRAPL: 70
  damage to plant (100=total damage to plant; 0=no damage to plant), CYPES: 0
  damage to plant (100=total damage to plant; 0=no damage to plant), DIGSA: 90
  damage to plant (100=total damage to plant; 0=no damage to plant), ECHCG: 80
  damage to plant (100=total damage to plant; 0=no damage to plant), ELEIN: 0
  damage to plant (100=total damage to plant; 0=no damage to plant), EPHHL: 0
  damage to plant (100=total damage to plant; 0=no damage to plant), GLXMA: 0
  damage to plant (100=total damage to plant; 0=no damage to plant), IPOHE: 0
  damage to plant (100=total damage to plant; 0=no damage to plant), ORYSA: 0
  damage to plant (100=total damage to plant; 0=no damage to plant), PANMI: 0
  damage to plant (100=total damage to plant; 0=no damage to plant), SETFA: 80
  damage to plant (100=total damage to plant; 0=no damage to plant), SORVU: 0
Rate 130
  damage to plant (100=total damage to plant; 0=no damage to plant), ABUTH: 0
  damage to plant (100=total damage to plant; 0=no damage to plant), AMARE: 0
  damage to plant (100=total damage to plant; 0=no damage to plant), BIDPI: 0
  damage to plant (100=total damage to plant; 0=no damage to plant), BRAPL: 80
  damage to plant (100=total damage to plant; 0=no damage to plant), CYPES: 0
  damage to plant (100=total damage to plant; 0=no damage to plant), DIGSA: 90
  damage to plant (100=total damage to plant; 0=no damage to plant), ECHCG: 90
  damage to plant (100=total damage to plant; 0=no damage to plant), ELEIN: 0
  damage to plant (100=total damage to plant; 0=no damage to plant), EPHHL: 0
  damage to plant (100=total damage to plant; 0=no damage to plant), GLXMA: 0
  damage to plant (100=total damage to plant; 0=no damage to plant), IPOHE: 0
  damage to plant (100=total damage to plant; 0=no damage to plant), ORYSA: 0
  damage to plant (100=total damage to plant; 0=no damage to plant), PANMI: 0
  damage to plant (100=total damage to plant; 0=no damage to plant), SETFA: 90
  damage to plant (100=total damage to plant; 0=no damage to plant), SORVU: 0
Rate 250
  damage to plant (100=total damage to plant; 0=no damage to plant), ABUTH: 0
  damage to plant (100=total damage to plant; 0=no damage to plant), AMARE: 0
  damage to plant (100=total damage to plant; 0=no damage to plant), BIDPI: 0
  damage to plant (100=total damage to plant; 0=no damage to plant), BRAPL: 80
  damage to plant (100=total damage to plant; 0=no damage to plant), CYPES: 0
  damage to plant (100=total damage to plant; 0=no damage to plant), DIGSA: 90
  damage to plant (100=total damage to plant; 0=no damage to plant), ECHCG: 90
  damage to plant (100=total damage to plant; 0=no damage to plant), ELEIN: 0
  damage to plant (100=total damage to plant; 0=no damage to plant), EPHHL: 0
  damage to plant (100=total damage to plant; 0=no damage to plant), GLXMA: 0
  damage to plant (100=total damage to plant; 0=no damage to plant), IPOHE: 0
  damage to plant (100=total damage to plant; 0=no damage to plant), ORYSA: 0
  damage to plant (100=total damage to plant; 0=no damage to plant), PANMI: 0
  damage to plant (100=total damage to plant; 0=no damage to plant), SETFA: 90
  damage to plant (100=total damage to plant; 0=no damage to plant), SORVU: 0
Rate 500
  damage to plant (100=total damage to plant; 0=no damage to plant), ABUTH: 10
  damage to plant (100=total damage to plant; 0=no damage to plant), AMARE: 0
  damage to plant (100=total damage to plant; 0=no damage to plant), BIDPI: 0
  damage to plant (100=total damage to plant; 0=no damage to plant), BRAPL: 90
  damage to plant (100=total damage to plant; 0=no damage to plant), CYPES: 0
  damage to plant (100=total damage to plant; 0=no damage to plant), DIGSA: 100
  damage to plant (100=total damage to plant; 0=no damage to plant), ECHCG: 90
  damage to plant (100=total damage to plant; 0=no damage to plant), ELEIN: 0
  damage to plant (100=total damage to plant; 0=no damage to plant), EPHHL: 0
  damage to plant (100=total damage to plant; 0=no damage to plant), GLXMA: 0
  damage to plant (100=total damage to plant; 0=no damage to plant), IPOHE: 0
  damage to plant (100=total damage to plant; 0=no damage to plant), ORYSA: 0
  damage to plant (100=total damage to plant; 0=no damage to plant), PANMI: 0
  damage to plant (100=total damage to plant; 0=no damage to plant), SETFA: 90
  damage to plant (100=total damage to plant; 0=no damage to plant), SORVU: 0
